Data on 20 molecules can be found in ChEMBL document CHEMBL3872248, “Discovery and initial optimization of alkoxyanthranilic acid derivatives as inhibitors of HCV NS5B polymerase” (Bioorg Med Chem Lett, 2017).

Active and inactive are the calls of the source. No cut-off for these calls is given here.

The EC50 is the concentration giving half of the maximal effect. One may read the IC50 as the point on the concentration scale where inhibition reaches its midpoint.

RNA-directed RNA polymerase, sequence (O39930 entry or part of it C316Y): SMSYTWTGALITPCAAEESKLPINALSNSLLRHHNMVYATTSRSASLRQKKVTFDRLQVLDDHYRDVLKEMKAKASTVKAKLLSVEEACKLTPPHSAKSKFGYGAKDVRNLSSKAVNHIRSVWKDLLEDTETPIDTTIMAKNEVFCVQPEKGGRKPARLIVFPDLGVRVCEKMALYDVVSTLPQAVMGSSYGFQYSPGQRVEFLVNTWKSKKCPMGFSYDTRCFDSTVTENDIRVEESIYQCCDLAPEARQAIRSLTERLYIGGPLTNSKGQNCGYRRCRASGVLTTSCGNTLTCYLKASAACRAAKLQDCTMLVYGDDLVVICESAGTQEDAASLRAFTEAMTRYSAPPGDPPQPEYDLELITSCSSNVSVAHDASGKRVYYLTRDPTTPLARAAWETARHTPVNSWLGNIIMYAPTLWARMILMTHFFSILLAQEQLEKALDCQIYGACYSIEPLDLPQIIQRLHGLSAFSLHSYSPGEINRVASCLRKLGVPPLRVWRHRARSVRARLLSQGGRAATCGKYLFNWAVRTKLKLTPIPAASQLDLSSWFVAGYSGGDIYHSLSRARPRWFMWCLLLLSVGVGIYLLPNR

One test relates to Hepatitis C virus. The test can be described thus: Antiviral activity against HCV genotype 1b Con1 expressing NS3 protease infected in human Huh-7 cells assessed as reduction in viral RNA replication measured after 3 days by EnduRen-based luciferase reporter gene assay. The class given is functional, cell-based, Hepacivirus hominis. Conditions: genotype 1b Con1, Huh-7, 72 h. A general note: Reporter assays use an easily measured gene product as a stand-in for the process of interest.
On to `O=C(O)CNC(=O)c1ccc(OCc2ccc(Cl)cc2)c(N2Cc3ccccc3C2=O)c1`, for which the EC50 is above 100 µM.

For another test, the system named is Hepatitis C virus. The test can be described thus: Antiviral activity against HCV genotype 1b Con1 expressing C-terminal truncated NS5B assessed as inhibition of viral RNA production at 50 uM by high throughput screening method. Conditions: Hepacivirus hominis. The class given is functional.
`O=C(Nc1c(OCc2ccc(Cl)cc2)cccc1C(=O)O)c1ccccc1`: the inhibition result was “Active”.

Test system in the next test: not listed separately
The test can be described thus: Inhibition of wild-type HCV genotype 1b Con1 C-terminal truncated NS5B RNA dependent RNA polymerase expressed in Escherichia coli BL21(DE3) Star assessed as inhibition of [alpha-32P]UTP incorporation using polyrA/T12 as template/primer measured after 60 mins by TopCount NXT method. The arrangement: species or system Hepatitis C virus (isolate Con1).
Settings: not given
Consider `O=C(O)COc1ccccc1C(=O)Nc1c(OCc2ccc(Cl)cc2)cccc1C(=O)O`, for which the IC50 came to 1.2 µM. Take `O=C(O)CNC(=O)c1ccc(OCc2ccc(Cl)cc2)c(NC(=O)c2ccccc2)c1`: the IC50 turned out to be 6.2 µM. Same read-out and setting: next, `O=C(Nc1c(OCc2ccc(Cl)cc2)cccc1-c1nnn[nH]1)c1ccccc1`: 25 µM; `O=C(NCCO)c1ccc(OCc2ccc(Cl)cc2)c(NC(=O)c2ccccc2)c1`: above 50 µM.

As for `O=C(O)CCCOc1cccc2c1CN(c1c(OCc3ccc(Cl)cc3)cccc1C(=O)O)C2=O`, the IC50 was 11 µM. Still for that read-out and setting: next, `O=C(O)/C=C/c1cccc2c1CN(c1c(OCc3ccc(Cl)cc3)cccc1C(=O)O)C2=O`: 1.7 µM; `CS(=O)(=O)NC(=O)c1ccc(OCc2ccc(Cl)cc2)c(NC(=O)c2ccccc2)c1`: 15 µM. `O=C(O)CNC(=O)c1ccc(OCc2ccc(Cl)cc2)c(N2Cc3ccccc3C2=O)c1`: the IC50 was 0.88 µM. Consider `O=C(O)c1cccc(OCc2ccc(Cl)cc2)c1N1Cc2c(O)cccc2C1=O`, for which the IC50 was found to be 6.6 µM. With `O=C(O)c1ccc(OCc2ccc(Cl)cc2)c(NC(=O)c2ccccc2)c1`, the IC50 came out at 8.3 µM. Turning to `O=C(O)c1cccc(OCc2ccc(Cl)cc2)c1N1CCCc2ccccc2C1=O`, the IC50 amounted to 32 µM. As for `O=C(O)Cc1cccc(OCc2ccc(Cl)cc2)c1NC(=O)c1ccccc1`, the IC50 worked out at 10 µM. On the same count and under the same terms, next, `O=C(Nc1c(OCc2ccc(Cl)cc2)cccc1C(=O)NCCO)c1ccccc1`: above 50 µM; `O=C(Nc1c(OCc2ccc(Cl)cc2)cccc1C(=O)O)c1ccccc1`: 8.4 µM. Same read-out and setting: next, `O=C(O)COc1cccc2c1CN(c1c(OCc3ccc(Cl)cc3)cccc1C(=O)O)C2=O`: 4.4 µM; `O=C(O)c1cccc(OCc2ccc(Cl)cc2)c1N1Cc2ccccc2C1=O`: 8.7 µM; `O=C(O)CCCOc1ccccc1C(=O)Nc1c(OCc2ccc(Cl)cc2)cccc1C(=O)O`: 2.1 µM. For the molecule `CS(=O)(=O)NC(=O)c1cccc(OCc2ccc(Cl)cc2)c1NC(=O)c1ccccc1`, the IC50 turned out to be 24 µM.

As for `CN(C(=O)c1ccccc1)c1c(OCc2ccc(Cl)cc2)cccc1C(=O)O`, the IC50 was above 50 µM.

For `O=C(Nc1c(OCc2ccc(Cl)cc2)cccc1C(=O)O)c1ccccc1O`, the IC50 is 4.6 µM.

The next test addresses RNA-directed RNA polymerase (Hepacivirus hominis, UniProt O39930, C316Y). The test can be described thus: Inhibition of wild-type HCV genotype 1b Con1 NS5B RNA dependent RNA polymerase C316Y mutant expressed in Escherichia coli BL21(DE3) Star assessed as inhibition of [alpha-32P]UTP incorporation using polyrA/T12 as template/primer measured after 60 mins by TopCount NXT method. The arrangement: species or system Hepatitis C virus (isolate Con1).
Settings: not given
As for `O=C(Nc1c(OCc2ccc(Cl)cc2)cccc1C(=O)O)c1ccccc1`, the IC50 was above 50 µM.
